One compound from patent publication US20230183193A1, “4-DIFLUOROMETHYL BENZOYL AMIDES WITH HERBICIDAL ACTION” (BAYER CROPSCIENCE AKTIENGESELLSCHAFT, priority 2017, published 2023) can be followed below.

Assay type in all cases: in vivo
The test system of one assay is Alopecurus myosuroides. Description: Pre-emergence herbicidal action, ALOMY. Particulars: 80 g/ha, comparison with WO 2011035874, Table G. In outline:
(§1)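 Weed seeds were laid out in sandy loam and covered with soil, then the soil surface was treated with an aqueous suspension or emulsion of the formulated compound containing 0.2% wetting agent. Pots stayed in the greenhouse for 3 weeks before damage was rated visually against untreated plants.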

The next assay relates to Avena fatua. Description: Pre-emergence herbicidal action, AVEFA. The following applies: 80 g/ha, comparison with WO 2011035874, Table G. An outline of the steps: as §1
Assay [1] has as its system Amaranthus retroflexus. In words: Post-emergence herbicidal action, AMARE. The following applies: 80 g/ha, comparison with WO 2011035874, Table E. In outline: (§2)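 Post-emergence spray; one-leaf stage (2–3 wk after sowing), sandy loam, greenhouse. WP/EC in water, 600 to […], +0.2% wetting agent. Visual % damage vs untreated at ~3 wk; 100% = plants dead.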
The subject of assay [2] is Stellaria media. Description: Post-emergence herbicidal action, STEME. The following applies: 80 g/ha, comparison with WO 2011035874, Table E. An outline of the steps: as §2
For the next assay, the system named is Matricaria inodora. Description: Post-emergence herbicidal action, MATIN. The following applies: 80 g/ha, comparison with WO 2011035874, Table E. Here is the method: (§3) Seeds of monocotyledonous and dicotyledonous weed and crop plants are laid out in sandy loam soil in wood-fiber pots, covered with soil and cultivated in a greenhouse under good growth conditions. 2 to 3 weeks after sowing, the test plants are treated at the one-leaf stage. The compounds of the invention, formulated in the form of wettable powders (WP) or as emulsion concentrates (EC), are then sprayed onto the green parts of the plants in the form of an aqueous suspension or emulsion at a water application rate equating to […], with addition of 0.2% wetting agent. After the test plants have been left to stand in the greenhouse under optimal growth conditions for about 3 weeks, the action of the preparations is assessed visually in comparison to untreated controls (herbicidal action in percent (%): 100% activity=the plants have died, 0% activity=like control plants). […] At the same time, inventive compounds leave Gramineae crops such as barley, wheat, rye, millet/sorghum, corn or rice virtually undamaged when applied post-emergence, even at high active compound dosages. In addition, some substances are also harmless to dicotyledonous crops such as soya, cotton, oilseed rape, sugar beet or potatoes. Some of the compounds according to the invention have high selectivity and are therefore suitable for controlling unwanted vegetation in agricultural crops by the post-emergence method. The data of Tables C and D below illustrate, in an exemplary manner, the […] herbicidal action of the compounds according to the invention, the herbicidal activity being stated in percent.
(§4) For comparison, the herbicidal activity of numerous compounds according to the invention was tested with the structurally closest compounds known from the documents WO 2011/035874, WO 2012/028579 and WO 2012/126932, by the pre- and post-emergence method.

Assay [3] deals with Stellaria media. Description: Pre-emergence herbicidal action, STEME. Particulars: 80 g/ha, comparison with WO 2011035874, Table H. In outline:
as §1

Assay [4] concerns Veronica persica. In words: Pre-emergence herbicidal action, VERPE. Particulars: 80 g/ha, comparison with WO 2011035874, Table H.
Description: (§5) 1. Pre-Emergence Herbicidal Action Against Harmful Plants Seeds of monocotyledonous and dicotyledonous weed plants and crop plants are laid out in sandy loam soil in wood-fiber pots and covered with soil. The compounds of the invention, formulated in the form of wettable powders (WP) or as emulsion concentrates (EC), are then applied to the surface of the covering soil in the form of an aqueous suspension or emulsion at a water application rate equating to […], with addition of 0.2% wetting agent. After the treatment, the pots are placed in a greenhouse and kept under good growth conditions for the trial plants. The damage to the test plants is scored visually after a test period of 3 weeks by comparison with untreated controls (herbicidal activity in percent (%): 100% activity=the plants have died, 0% activity=like control plants).
as §4

Another assay relates to Polygonum convolvulus. Description: Pre-emergence herbicidal action, POLCO. Particulars: 80 g/ha, comparison with WO 2011035874, Table H. An outline of the steps:
as §1

Assay [5] relates to Amaranthus retroflexus. In words: Pre-emergence herbicidal action, AMARE. Particulars: 80 g/ha, comparison with WO 2011035874, Table H. An outline of the steps: as §1
Assay [6] has as its system Viola tricolor. In words: Pre-emergence herbicidal action, VIOTR. Particulars: 80 g/ha, comparison with WO 2011035874, Table H. In outline:
as §1

For another assay, the system named is Setaria viridis. In words: Pre-emergence herbicidal action, SETVI. Particulars: 80 g/ha, comparison with WO 2011035874, Table G. An outline of the steps:
as §1

For another assay, the system named is ECHCG. In words: Pre-emergence herbicidal action, ECHCG. Particulars: 80 g/ha, comparison with WO 2011035874, Table G.
Description: as §5

For a further assay, the system named is Cyperus serotinus. Description: Pre-emergence herbicidal action, CYPES. Particulars: 80 g/ha, comparison with WO 2011035874, Table G. In outline:
as §1

Assay [7] deals with Veronica persica. In words: Post-emergence herbicidal action, VERPE. Particulars: 80 g/ha, comparison with WO 2011035874, Table E. On the procedure: as §3, §4
Assay [8] concerns Abutilon theophrasti. Description: Pre-emergence herbicidal action, ABUTH. The following applies: 80 g/ha, comparison with WO 2011035874, Table G. In outline: as §1
For a further assay, the system named is Pharbitis purpureum. Description: Post-emergence herbicidal action, PHBPU. The following applies: 80 g/ha, comparison with WO 2011035874, Table E. In outline:
as §2

Assay [9] deals with Abutilon theophrasti. Description: Post-emergence herbicidal action, ABUTH. Particulars: 80 g/ha, comparison with WO 2011035874, Table E. An outline of the steps: as §2
The subject of assay [10] is Viola tricolor. In words: Post-emergence herbicidal action, VIOTR. The following applies: 80 g/ha, comparison with WO 2011035874, Table E. An outline of the steps:
as §2

`Cn1nnnc1NC(=O)c1ccc(C(F)F)c(S(=O)(=O)CC2CC2)c1I` [Example 1-81]: the “Herbicidal efficacy against ALOMY” value in the assay on Alopecurus myosuroides amounted to 0%. Moreover, in the assay with Avena fatua, the “Herbicidal efficacy against AVEFA” value is on record as 40%. The “Herbicidal efficacy against AMARE” value with Amaranthus retroflexus [1] and with Amaranthus retroflexus [5] was 60% in each case. For the same compound, the “Herbicidal efficacy against STEME” value is on record as 0% in the assay on Stellaria media [2] and 50% in the assay with Stellaria media [3]. In the assay on Matricaria inodora, the “Herbicidal efficacy against MATIN” value turned out to be 10%. Besides, the “Herbicidal efficacy against VERPE” value was 70% in the assay on Veronica persica [4] and 30% in the assay with Veronica persica [7]. In the assay on Polygonum convolvulus, the “Herbicidal efficacy against POLCO” value stood at 10%. The results for the “Herbicidal efficacy against VIOTR” value in the assay with Viola tricolor [6] and in the assay with Viola tricolor [10] were 90% and 0%, respectively. Moreover, the “Herbicidal efficacy against SETVI” value in the assay on Setaria viridis is given as 10%. For the same compound, the “Herbicidal efficacy against ECHCG” value in the assay with ECHCG is 10%. In addition, in the assay on Cyperus serotinus, the “Herbicidal efficacy against CYPES” value is 0%. Besides, the entries for the “Herbicidal efficacy against ABUTH” value in the assay with Abutilon theophrasti [8] and in the assay on Abutilon theophrasti [9] were 20% and 30%, respectively. In addition, in the assay on Pharbitis purpureum, the “Herbicidal efficacy against PHBPU” value is reported as 10%.
